Counter-ions that a name gives are not always drawn.
What was measured:
[1] = system: epithelial sodium channel (ENaC); assay: Transepithelial Electrical Resistance (TEER) assay, primary CF delF508 or non-CF HBE cells (FIG. 6-9); assay type: cell-based, human
Protocol: (§1) Primary cultures of CF delF508 or non-CF HBE cells are seeded onto permeable filter supports and grown for 12-14 days for a significant RTE to be measured for TEER assays.
(§2) When the ENaC is active under basal conditions (at least in part due to protease cleavage inside the cell or at the apical membrane), there is a finite RTE that is affected by the Na+ current flowing through ENaC heterotrimers (αβγ or δβγ).

[2] = system: epithelial sodium channel (ENaC); assay: TEER assay, chronic or acute treatment, Non-CF Polarized Human Lobar Bronchial Epithelial Cells; assay type: cell-based; parameters: RTE Before Amil / RTE After Amil: unit not given here; details: for Delta RTE / RTE After Amil / RTE Before Amil: chronic treatment (overnight)
Protocol: as §1, §2

[3] = system: epithelial sodium channel (ENaC); assay: Transepithelial fluid transport assay, CF delF508 HBE cells; assay type: cell-based, human
Protocol: Primary cultures of CF delF508 or non-CF HBE cells are seeded onto permeable filter supports and grown for 7 days for a significant RTE to be measured. Then, apical media is removed to initiate air-fluid interface (AFI) culture. When the cell monolayers are tight to fluid leak from basolateral to apical side of the cell monolayer, they are ready for fluid transport (fluid absorption) measurements.
Two methods are being used to challenge cell monolayers in AFI culture where there is no media in the apical side:
(1) A chronic overnight treatment was performed by adding the protease inhibitors (ENaC inhibitors) into the basolateral media. Then, […] of cell culture media is added to the apical side of each monolayer and fluid absorption measured (by the loss of volume in mls).
(2) An acute treatment was performed when the protease inhibitors (ENaC inhibitors) are added in the apical media in that […] volume (or media only or DMSO equivalents as controls).
In each case, fluid absorption is occurring against a 5× hydrostatic pressure gradient (i.e., there are 500 ml on the basolateral side and […] on the apical side).
When the ENaC is active under basal conditions (at least in part due to protease cleavage inside the cell or at the apical membrane), the absorptive Na+ current flowing through ENaC heterotrimers (αβγ or δβγ) creates an osmotic driving force for fluid absorption.

[4] = system: hydroxyproline (a specific marker for collagen) in mouse lung; assay: Bleomycin induced lung fibrosis model: hydroxyproline assay; assay type: in vivo; details: 10 mg/kg, Intra-peritoneal, Twice daily; relative to levels induced by Bleomycin in vehicle treated animals; *p < 0.05
Protocol: (§3) Preclinical pulmonary fibrosis can be induced by single instillation of Bleomycin to the mouse lung. A 15-day Bleomycin protocol was developed to evaluate compounds of the invention in vivo for their ability to inhibit TGFβ secretion and collagen deposition in the mouse lung. On the day before Bleomycin instillation, compounds were administrated to mice based on the appropriate route and frequency. On the study initiation day, under Ketamine (80 mg/kg) and Xylazine (10 mg/kg) anesthesia, all the animals were cannulated oro-tracheally and 50 μL of normal saline (Sham control) or 0.03 U Bleomycin in 50 μL saline (all groups except sham control group) was delivered into the trachea. Compounds were dosed daily until the end of study on Day 15. On termination day, animals were euthanized using CO2 inhalation. The right lung was collected, washed in normal saline, weighed, flash frozen in liquid nitrogen and stored at −80° C. for hydroxyproline (a specific marker for collagen) and TGFβ assays.
(§4) Flash frozen whole right lung tissues were homogenized in 500 μL of RIPA buffer containing PMSF and protease inhibitor cocktail using zirconium oxide bead based homogenizer (Bullet blender Gold, NextAdvance, Germany). Briefly, tissues were spun in the homogenizer at 4° C. for three cycles of 10 minutes each at 1000 g. A complete uniform tissue mixture was obtained using this procedure. The homogenate volume was made up to 1.5 mL by adding 1 mL of RIPA buffer containing PMSF and protease inhibitor cocktail to 500 μL of homogenate. The homogenate was stored as aliquots of 100-500 μL each at −80° C.
Acid hydrolysis: 500 μL of the homogenized lung parenchyma was transferred to glass vials, and an equal volume of 12N HCl was added (final concentration of HCl: 6N). The vials were purged with nitrogen gas, sealed and incubated overnight (16 h) under anoxic conditions at 110° C.
Post incubation procedures: 35 μL of the sample from each tube or standard (prepared by serial dilution of hydroxyproline stock solution) was added onto a 96 well plate and the assay was performed as per the kit protocol (Quickzyme Biosciences: Cat #: QZBHYPR05). After the final color development, absorbance was measured by colorimetric analysis at 570 nm (using Thermoscan spectrum (Plate Reader) and results were recorded. Standard curve (linear graph) was generated by using hydroxyproline standards provided in the Quickzyme kit.

[5] = system: TGFβ in mouse lung; assay: Bleomycin induced lung fibrosis model: TGFβ assay; assay type: in vivo; details: 10 mg/kg, Intra-peritoneal, Twice daily; relative to levels induced by Bleomycin in vehicle treated animals; *p < 0.05
Protocol: as §3, §4
Lung tissue homogenates (500 μL) were spun at 13,000 rpm for 20 minutes at 4° C. and supernatants were collected for TGFβ estimation. The assay was performed according to the manufacturer's manual (R&D systems: Cat #SMB100B). Briefly, the lung homogenates were activated by acid activation followed by neutralization to convert latent TGFβ to active TGFβ and the total TGFβ levels in supernatants were measured. Total protein levels in the lung supernatant were also determined.

[6] = target: T1, furin (endogenous protease) in U20S cells (Homo sapiens, UniProt P09958); assay: Furin cell-based assay (image-based, Golgi-targeted GFP with BMP10 furin/PCSK cleavage site); details: 24-hour incubation, read-out: furin golgi cell pXC50 (converted);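 also: Read-out is mean GFP fluorescence of Golgi puncta per cell by high-content imaging, retained when furin inhibited, over an eleven-point 0.00017–10 µM series, four-parameter fit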
T1 construct: the endogenous protease cleaves GFP; endogenous in cells; host or cells: U2OS cells transduced with a BacMam reporter
T1 sequence (P09958 108-794): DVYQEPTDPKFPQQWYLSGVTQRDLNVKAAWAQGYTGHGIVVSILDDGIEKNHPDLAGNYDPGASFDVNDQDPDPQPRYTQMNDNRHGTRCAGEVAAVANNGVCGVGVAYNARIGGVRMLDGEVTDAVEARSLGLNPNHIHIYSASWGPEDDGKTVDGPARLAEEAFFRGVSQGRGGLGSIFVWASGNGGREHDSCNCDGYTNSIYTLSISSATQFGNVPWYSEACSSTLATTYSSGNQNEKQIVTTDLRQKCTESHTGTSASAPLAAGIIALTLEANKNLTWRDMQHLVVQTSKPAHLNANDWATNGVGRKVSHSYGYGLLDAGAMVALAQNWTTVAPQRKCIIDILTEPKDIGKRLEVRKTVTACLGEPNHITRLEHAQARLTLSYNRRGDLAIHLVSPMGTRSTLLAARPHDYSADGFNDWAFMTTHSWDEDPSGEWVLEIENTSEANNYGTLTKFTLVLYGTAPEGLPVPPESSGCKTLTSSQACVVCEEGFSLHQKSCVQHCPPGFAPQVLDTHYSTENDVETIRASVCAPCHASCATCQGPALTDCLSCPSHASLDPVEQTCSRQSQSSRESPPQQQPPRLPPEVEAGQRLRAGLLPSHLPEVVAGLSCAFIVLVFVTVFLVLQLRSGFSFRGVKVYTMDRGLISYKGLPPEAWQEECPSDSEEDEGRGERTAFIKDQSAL

[7] = target: T2, Furin (108-574-Tev-Flag-His) enzyme (Homo sapiens, UniProt P09958); assay: Furin enzyme assay; assay type: biochemical
T2 construct: Furin (108-574-Tev-Flag-His) enzyme was expressed and purified from CHO cells; TEV cleavage site (C); FLAG (C); His (C); made in house; host or cells: CHO cells
T2 sequence (P09958 108-574): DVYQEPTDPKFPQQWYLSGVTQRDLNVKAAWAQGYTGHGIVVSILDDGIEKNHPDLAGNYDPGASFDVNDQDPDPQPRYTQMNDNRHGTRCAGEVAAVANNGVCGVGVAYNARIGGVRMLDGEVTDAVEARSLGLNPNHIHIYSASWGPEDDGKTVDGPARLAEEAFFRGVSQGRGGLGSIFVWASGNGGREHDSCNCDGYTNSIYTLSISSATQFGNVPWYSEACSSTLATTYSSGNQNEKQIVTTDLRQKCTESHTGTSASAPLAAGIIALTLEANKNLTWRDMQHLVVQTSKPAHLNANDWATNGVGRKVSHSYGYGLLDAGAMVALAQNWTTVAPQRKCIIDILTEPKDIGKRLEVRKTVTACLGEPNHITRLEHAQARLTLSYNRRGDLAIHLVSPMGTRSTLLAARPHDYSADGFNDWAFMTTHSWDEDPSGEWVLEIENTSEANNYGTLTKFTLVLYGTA
How it was run: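 CHO-expressed, purified furin construct at 40 pM in 100 mM HEPES pH7.5, 1 mM CaCl2, 0.005% Triton X-100. Eleven-point 1:3 series, 0.00017–10 μM final, incubated 2 h at room temperature and read on Envision. pXC50 from four-parameter fit.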

[8] = target: furin and PCSK 5/6; details: serpin protease inhibitor; specificity for furin and PCSK 5/6; from Couture et al. 2015; cited from earlier work

## CC(=O)NCC1CCN(Cc2cc(Oc3ccc(N4CCN(CCC(=O)O)CC4)nc3)nc(-c3cc(Cl)cc(Cl)c3)c2)CC1 [Example 11, 3-(4-(5-((4-((4-(Acetamidomethyl)piperidin-1-yl)methyl)-6-(3,5-dichlorophenyl)pyridin-2-yl)oxy)pyridin-2-yl)piperazin-1-yl)propanoic acid, 4 hydrochloride]
[1]; compared to 'Media only' and 'DMSO (LTA)' controls, FIG. 6, *p<0.05
  amiloride-induced increase in RTE: concentration-dependent reduction in amiloride-induced increase in RTE
[1]; compared to Camostat at the same concentration and Aprotinin at ˜10 μM, FIG. 7, overlap in CRCs only at 3 μM
  effectiveness on RTE compared to industry standards: more effective
[2]; acute treatment, up to 3 μM
  acute effect on RTE: equivalent acute effect to Aprotinin and a stronger effect than Camostat
  inhibition of amiloride-sensitive RTE delta (remaining ENaC activity): inhibited amiloride-sensitive RTE delta modestly
[2]; chronic overnight treatment, 3 μM, P<0.05
  effect on the amiloride-sensitive RTE delta: equivalent inhibitory effect
[2]; 0.1 μM
  Delta RTE: +181 ± 16
  RTE After Amil: 697 ± 57
  RTE Before Amil: 517 ± 42
[2]; 0.3 μM
  Delta RTE: +122 ± 6
  RTE After Amil: 548 ± 13
  RTE Before Amil: 426 ± 10
[2]; 1 μM
  Delta RTE: +133 ± 14
  RTE After Amil: 605 ± 49
  RTE Before Amil: 472 ± 38
[2]; 3 μM
  Delta RTE: +63 ± 7
  RTE After Amil: 390 ± 18
  RTE Before Amil: 326 ± 16
[3]; 1 and 3 μM
  attenuation of rate of fluid lost: 50%
  attenuation of total fluid volume lost: 50%
[3]; compared to 'DMSO Equivalent' controls, FIG. 10 and FIG. 11
  absorptive fluid transport: concentration-dependent attenuation of absorptive fluid transport
[4]
  % inhibition of hydroxyproline in lung: 67* %
[5]
  % inhibition of total TGFβ in lung: 69* %
[6]
  EC50: 25.1 nM
[7]
  furin enzyme pIC50: 9.6

## α1-PDX: "an engineered variant of naturally occurring α-1-antitrypsin serum protease inhibitor"; "a serpin superfamily wide protease inhibitor with high specificity for furin and PCSK 5/6"
[8]
  Ki: ≥ 0.6 nM

From patent US11773078B2, “Furin inhibitors” (Glaxosmithkline Intellectual Property Development Limited, priority 2018, dated 2023)
